For orientation: ED50 means the dose at which the effect has come halfway, by size or by number of responders. Read a high ED50 as a need for a large dose. For orientation: IC50 means the concentration needed to halve the response being measured. A higher IC50 goes with weaker potency.

For test [1], the system named is activity of the diazepam in the pentetrazole test. The test can be described thus: antagonism of diazepam in the pentetrazole test. As to conditions: Mus musculus, po; counteracts the diazepam effect in 50% of the animals; diazepam 5 mg/kg i.p. 1 hour before, test compound p.o. 15 minutes before pentetrazole 120 mg/kg i.p.; mice. In kind it is in vivo. How it is done: (§1) This property was used to evaluate the test described hereinafter which permits the determination of compounds which are capable of antagonizing the central properties of 1,4-benzodiazepines which have tranquillizing activity.
(§2) The antagonistic activity of the compounds investigated, i.e. their ability to counteract the activity of the diazepam in the pentetrazole test, is determined by counting the mice which suffer convulsive attacks in this test.
In the following Table there are presented the results which have been obtained with representative members of the class of compound defined by formula I in the test previously described. The ED50 is the amount of test compound in mg/kg (p.o.) which in 50% of the animals counteracts the diazepam effect in the above test. Moreover, the Table contains the IC50 value (defined above) for all test compounds listed therein.

Test [2] deals with central benzodiazepine receptors. The test can be described thus: inhibition of the binding of tritiated diazepam at the specific benzodiazepine receptors in the cerebral cortex. Conditions: 50 percent inhibition of the specific binding of the tritiated diazepam. As to the method: The affinity of compounds of formula I to the central benzodiazepine receptors was determined according to the method described in Life Science 20, 2101-2110 (1977) and Science 198, 849-851 (1977). According to this method, the inhibition of the binding of tritiated diazepam at the specific benzodiazepine receptors in the cerebral cortex by the respective test substances is ascertained. The IC50 ("50% inhibiting concentration") is that concentration of the respective test substance which brings about a 50 percent inhibition of the specific binding of the tritiated diazepam at the specific benzodiazepine receptors in the cerebral cortex.

Test [3] relates to convulsive attacks in the pentetrazole test. Briefly: pentetrazole test (anticonvulsant activity of diazepam). In kind it is in vivo. Conditions: diazepam 5 mg/kg i.p. (supramaximal dosage), more than 900 mice. How it is done: as §1, §2

On to `CN1Cc2c(Br)ncn2-c2ccc(F)cc2C1=O` [(a) F H Br H --CH3 O --, 3-bromo-8-fluoro-4,5-dihydro-5-methyl-6H-imidazo[1,5-a][1,4]benzodiazepin-6-one], for which the 50% effect level in test [1] (ED50) was put at a dose of 7.1 mg/kg. In test [2], this molecule yielded an IC50 of 51 nM.
In test [1], `O=C1c2c(Cl)cccc2-n2cnc(Cl)c2C2C=CCN12` (racemic) [(a) H Cl Cl --CH=CH--CH2 -- O (R/S), (R,S)-1,8-dichloro-11,13a-dihydro-9H-imidazo[1,5-a]pyrrolo[2,1-c][1,4]benzodiazepin-9-one] came in with an ED50 of 1 mg/kg. In addition, the IC50 in test [2] was 3.9 nM.
In turn, `COCc1ncn2c1CN(C)C(=O)c1c(Cl)cccc1-2` [(a) H Cl --CH2 OCH3 H --CH3 O --, 7-chloro-4,5-dihydro-3-(methoxymethyl)-5-methyl-6H-imidazo[1,5-a][1,4]benzodiazepin-6-one] yielded an ED50 in test [1] of 1.4 mg/kg. In test [2], this molecule displayed an IC50 of 30 nM.
Molecule `O=C1c2ccccc2-n2cnc(Br)c2[C@@H]2CCCN12` [(a) H H Br --(CH2)3 -- O (S), (S)-1-bromo-11,12,13,13a-tetrahydro-9H-imidazo[1,5-a]pyrrolo[2,1-c][1,4]benzodiazepin-9-one] came in with an ED50 in test [1] of 9.9 mg/kg. For the same molecule, in test [2], the IC50 was 48 nM.
Turning to `CN1Cc2c(Cl)ncn2-c2cccc(Cl)c2C1=O` [(a) H Cl Cl H --CH3 O --, 3,7-dichloro-4,5-dihydro-5-methyl-6H-imidazo[1,5-a][1,4]benzodiazepin-6-one], the 50% effect level in test [1] (ED50) was put at a dose of 0.9 mg/kg. This molecule displayed an IC50 in test [2] of 3.6 nM.
For `COCc1ncn2c1CN(C)C(=O)c1ccccc1-2` [(a) H H --CH2 OCH3 H --CH3 O --, 4,5-dihydro-3-(methoxymethyl)-5-methyl-6H-imidazo[1,5-a][1,4]benzodiazepin-6-one], in that order: 8.9 mg/kg and 380 nM.
The like results for `CN1Cc2c(Cl)ncn2-c2ccccc2C1=O` [(a) H H Cl H --CH3 O --, 3-chloro-4,5-dihydro-5-methyl-6H-imidazo[1,5-a][1,4]benzodiazepin-6-one] were, in that order, 1.7 mg/kg and 100 nM.
For `CN1C(=O)CN=C(c2ccccc2)c2cc(Cl)ccc21` [diazepam], in test [3], the “protection from convulsive attacks” value was “protects all experimental animals from convulsive attacks”.
On to `CN1Cc2c(I)ncn2-c2ccccc2C1=O` [(a) H H J H --CH3 O --, 4,5-dihydro-3-iodo-5-methyl-6H-imidazo[1,5-a][1,4]benzodiazepin-6-one], for which it took a dose of 2.5 mg/kg to reach the 50% effect level in test [1] (ED50). The IC50 in test [2] stood at 23 nM.
For `CN1Cc2c(Br)ncn2-c2ccccc2C1=O` [(a) H H Br H --CH3 O --, 3-bromo-4,5-dihydro-5-methyl-6H-imidazo[1,5-a][1,4]benzodiazepin-6-one], in that order: 4.5 mg/kg and 34 nM.
The like results for `CN1Cc2c([N+](=O)[O-])ncn2-c2ccccc2C1=O` [(a) H H --NO2 H --CH3 O --, 4,5-dihydro-5-methyl-3-nitro-6H-imidazo[1,5-a][1,4]benzodiazepin-6-one] were, in that order, 4 mg/kg and 72 nM.
`CN1Cc2c(Cl)ncn2-c2ccccc2C1=S` [(a) H H Cl H --CH3 S --, 3-chloro-4,5-dihydro-5-methyl-6H-imidazo[1,5-a][1,4]benzodiazepine-6-thione]: the median effective dose (ED50) in test [1] amounted to 10.5 mg/kg. The IC50 in test [2] is 250 nM.
The like results for `O=C1c2ccccc2-n2cnc(Cl)c2[C@@H]2CCCN12` [(a) H H Cl --(CH2)3 -- O (S), (S)-1-chloro-11,12,13,13a-tetrahydro-9H-imidazo[1,5-a]pyrrolo[2,1-c][1,4]benzodiazepin-9-one] were, in that order, 8 mg/kg and 120 nM.
In turn, `O=C1c2sccc2-n2cnc(Cl)c2[C@@H]2CCCN12` [(b) -- -- Cl --(CH2)3 -- O (S), (S)-1-Chloro-10,11,12,12a-tetrahydro-8H-imidazo[5,1-c]pyrrolo[1,2-a]thieno[3,2-e][1,4]diazepin-8-one] showed an ED50 in test [1] of 0.83 mg/kg. For the same molecule, the IC50 in test [2] turned out to be 17 nM.
The like results for `CN1Cc2c(Cl)ncn2-c2ccc(F)cc2C1=O` [(a) F H Cl H --CH3 O --, 3-chloro-8-fluoro-4,5-dihydro-5-methyl-6H-imidazo[1,5-a][1,4]benzodiazepin-6-one] were, in that order, 2.3 mg/kg and 28 nM.
Regarding `O=C1c2c(Cl)cccc2-n2cncc2C2C=CCN12` (racemic) [(a) H Cl H --CH=CH--CH2 -- O (R/S), (R,S)-8-chloro-11,13a-dihydro-9H-imidazo[1,5-a]pyrrolo[2,1-c][1,4]benzodiazepin-9-one], in test [1], the 50% effect level (ED50) was put at a dose of 10.9 mg/kg. Also, the IC50 in test [2] was determined as 240 nM.
The like results for `CN1Cc2cncn2-c2cccc(Cl)c2C1=O` [(a) H Cl H H --CH3 O --, 7-chloro-4,5-dihydro-5-methyl-6H-imidazo[1,5-a][1,4]benzodiazepin-6-one] were, in that order, 6.2 mg/kg and 110 nM.

These data come from patent US4352818A, “Diazepine derivatives and their use” (Hoffmann-La Roche Inc., priority 1981, dated 1982).
